Measurements as given in patent US10293016B2, “Use of instant asparagus powder in food, medicine and health food” (Q[…] DEVELOPMENT CO., LTD, priority 2013, dated 2019).

Columns and labels:
[1] = system: Mouse; test: Elevated plus maze model (EPM) test; format: in vivo
Source text: The elevated plus maze has been widely used in anxiety experiments of the small rodent. This system is used to detect the situation of decreasing animals' inherent aversion to a high position and a open field, after using the anxiety drug. The rodent (e.g. rat, mouse), which have the exploratory behavior, will actively explore the open arms after placed in the elevated plus maze, but fear the high and open environment in the open arms. The antianxiety drug increases the open-arm exploratory activities, while the anxiety drug has the opposite effect.
The elevated plus maze has a pair of open arms and a pair of closed arms. The animal, after a period of time of adaptation, is rapidly placed in the central platform of the EPM in such a way that its head directly faces one of the open arms. A tracking camera is used to record following: (1) times of entering the open arm (open arm entry, OE) within 5 minutes, wherein it is considered as one time of entering an open arm when all the four paws of the rat have entered any open arm, and meanwhile this entry activity is finished when one paw completely withdraws from this arm; (2) duration of staying in an open arm (open arm time, OT) within 5 minutes, wherein the unit of the duration of staying in an open arm is “second”; (3) times of entering a closed arm (close arm entry, CE) within 5 minutes, wherein it is considered as one time of entering a closed arm when all the four paws of the rat have entered any closed arm; (4) duration of staying in a closed arm (close arm entry, CT) within 5 minutes, wherein the unit of duration of staying in a closed arm is “second”. The following is calculated from (1)-(4), respectively: […]
(1) the total number of the times of the open arm entry and the closed arm entry (OE+CE): representing the motion vitality of the rat;
(2) the ratio of the times of the open arm entry (OE %); the times of the open arm entry/(OE+CE)×100%;
(3) the ratio of the duration of staying in the open arms (OT %), i.e. the duration of staying in the open arms/(OT+CT)×100%. Each rat is tested for 5 minutes. OE % and OT % represent the indices of the antianxiety effect.

[2] = system: Mouse; test: Chronic emotional stress-response model (CSM) test, behaviors; format: in vivo, rat; conditions: CSM empty bottle stimulation, dosage 3 mg/Kg, n=10
[3] = system: Neurotransmitter in Hippocampus of Rat; test: CSM test, level of neurotransmitter in hippocampus; format: in vivo; conditions: dosage 3 mg/Kg
Source text: (§1) The chronic emotional stress-response model takes as an emotional stress-response resource an uncertain stimulation of drinking by an empty bottle, so as to investigate the influence which the emotional stress of 14 days exerts on the behaviors, and neuroendocrine and immune functions of the rats.
After adaptation for one week, the rats were randomly grouped. Except the normal group, the model groups were fed in individual cages and subjected to the uncertain stimulation of drinking by an empty bottle to establish the anxiety stress models. The specific method is as follows: the training of timely feeding water lasts for 7 days, that is, water was being given to the animals for 10 minutes every day at 9:00-9:10 and 17:00-17:10, and at other times, the water bottles were taken away, without water given. After the period of timely feeding water was ended, the stress-response experiment started, wherein the uncertain stimulation of the empty bottle was given once or twice a day in the above two periods of time for two weeks. The normal group was not subjected to any treatment, and was fed with water and food freely. The behaviors observed included attacking (biting or attacking the empty bottle and the cage), exploratory (moving around and visiting the place where the water bottle was located), and grooming behaviors (combing fur and washing face). The specific method was: the 10 minutes of the empty bottle stimulation was equally divided into 10 periods of time, the above-mentioned three types of behaviors of each rat were recorded in each period of time, wherein it was marked as “1” if the behavior appears, otherwise it was marked as “0”. The total score obtained in the observation within 10 minutes was between 0 and 10. […] The average score of the first 3 days and the last 3 days of the 14 observation days was used for statistical analysis. […]
(§2) The following endocrine levels were detected in the test: (1) plasma cortisol concentration, (2) catecholamine level, (3) 5-hydroxytryptamine level.

[4] = system: Neurotransmitter in Serum of Rat; test: CSM test, level of neurotransmitter in serum; format: in vivo; conditions: dosage 3 mg/Kg
Source text: as §1
After adaptation for one week, the rats were randomly grouped. Except the normal group, the model groups were fed in individual cages and subjected to the uncertain stimulation of drinking by an empty bottle to establish the anxiety stress models. The specific method is as follows: the training of timely feeding water lasts for 7 days, that is, water was being given to the animals for 10 minutes every day at 9:00-9:10 and 17:00-17:10, and at other times, the water bottles were taken away, without water given. After the period of timely feeding water was ended, the stress-response experiment started, wherein the uncertain stimulation of the empty bottle was given once or twice a day in the above two periods of time for two weeks. The normal group was not subjected to any treatment, and was fed with water and food freely. The behaviors observed included attacking (biting or attacking the empty bottle and the cage), exploratory (moving around and visiting the place where the water bottle was located), and grooming behaviors (combing fur and washing face). The specific method was: the 10 minutes of the empty bottle stimulation was equally divided into 10 periods of time, the above-mentioned three types of behaviors of each rat were recorded in each period of time, wherein it was marked as “1” if the behavior appears, otherwise it was marked as “0”. The total score obtained in the observation within 10 minutes was between 0 and 10. […] The average score of the first 3 days and the last 3 days of the 14 observation days was used for statistical analysis. The samples were gathered when the experiment was ended to detect the neuroendocrine and immune indices.
The normal control group was not subjected to any treatment; all the other groups were subjected to the stimulation.
as §2

[5] = system: Mouse; test: Analysis of times of locomotor activities; format: in vivo
Source text: The condition of the locomotor activity of an animal reflects the functional status of its central nervous system. The central stimulant drug can prominently increase the locomotor activity but decrease the exploratory behavior, and a certain dosage of antipsychotic drug can decrease the exploratory behavior without influencing the locomotor activity. A YLS-1A multi-functional mouse locomotor activity recorder is used to record the situation of locomotor activity of the mouse at different points of time after drug administration.

SMILES: CN1C(=O)CN=C(c2ccccc2)c2cc(Cl)ccc21 [DZP, diazepam]
- OE + CE (times) ([1]; EPM 5 minutes, dosage 3 mg/Kg, n=10, mean±SD, negative control 10.8 ± 3.9): 12.9 ± 5.2 times
- OT (%) ([1]; EPM 5 minutes, dosage 3 mg/Kg, n=10, negative control 20.1 ± 4.5, p<0.05): 42.3 ± 5.7 %
- OE (%) ([1]; EPM 5 minutes, dosage 3 mg/Kg, n=10, negative control 22.8 ± 5.9, p<0.05): 40.9 ± 5.2 %
- values of OT % and OE % and total number of the times of entering arms (in words) ([1]; EPM, with the dosage of administration): can increase the values of OT % and OE % without increasing the total number of the times of entering arms
- Grooming Behavior (%) ([2]; negative control 2.38 ± 1.16): 1.78 ± 1.06%
- Exploratory Behavior (%) ([2]; negative control 2.44 ± 0.88): 1.09 ± 0.52%
- Attacking Behavior (%) ([2]; negative control 2.56 ± 2.09): 0.69 ± 0.52%
- NE (norepinephrine) ([3]; n=10, negative control 0.104 ± 0.048): 0.080 ± 0.053 pg/mL
- Dopamine ([3]; n=10, negative control 9.542 ± .93): 11.38 ± 4.33 ng/mL
- NA ([3]; n=10, negative control 40.97 ± 13.25): 37.22 ± 10.05 pg/mL
- 5-HT ([4]; n=10, negative control 0.86 ± 0.15, p<0.05): 1.12 ± 0.13 ng/mL
- NE ([4]; n=10, negative control 1.15 ± 0.16): 1.00 ± 0.13 pg/mL
- DA ([4]; n=10, negative control 5.45 ± 0.76): 6.00 ± 1.70 ng/mL
- NA ([4]; n=10, negative control 15.08 ± 0.71): 14.67 ± 0.36 pg/mL
- COR (cortisol) ([4]; n=10, negative control 49.94 ± 7.26, p<0.05): 28.94 ± 6.36 ng/mL
- Times of Locomotor Activity 15-20 min (times) ([5]; 15-20 min after administration, dosage 3 mg/Kg, n=10, negative control 86 ± 35): 48 ± 46 times
- Times of Locomotor Activity 30-35 min (times) ([5]; 30-35 min after administration, dosage 3 mg/Kg, n=10, negative control 64 ± 15, p<0.05): 32 ± 16 times
- Times of Locomotor Activity 60-65 min (times) ([5]; 60-65 min after administration, dosage 3 mg/Kg, n=10, negative control 53 ± 9, p<0.05): 24 ± 6 times
- times of locomotor activities of the mouse (in words) ([5]; with the dosage of administration): prominently reduce the times of locomotor activities of the mouse at the two periods of time, namely, 30 minutes and 60 minutes
